Measurements published in paper PMC9030827, “In Vitro Effects of Mitochondria-Targeted Antioxidants in a Small-Cell Carcinoma of the Ovary of Hypercalcemic Type and in Type 1 and Type 2 Endometrial Cancer” (Biomedicines, 2022).

Key:
Hec50co cells [1] = assay: Cell morphology by Giemsa staining; assay type: cell-based, human; settings: 72 h, 5 μM Mito6_TPP, 20 μM Mito6_picol., 10 μM Mito6_isoq.
Protocol: Morphological changes in all cell lines were evaluated by phase-contrast microscopy (Eclipse TS100 Inverted Microscope, Nikon, Tokyo, Japan) and Giemsa staining. […] The cells were plated in 24-well plates with coverslips using the densities of 1 × 10^5 cells/well in Ishikawa and Hec50co and 2.5 × 10^5 cells/well in COV434 and HFF-1. After adherence, the cells were treated with Mito6_TPP (5 μM), Mito6_picol. (20 μM), or Mito6_isoq. (10 μM) and incubated at 37 °C with 5% CO2 for 72 h. For Giemsa staining, the cells were fixated with paraformaldehyde 4% in Phosphate Buffered Saline (PBS) for 15 min, stained with Giemsa solution for 30 min, mounted with DPX, and observed through bright field microscopy. For Höechst staining, the cells were incubated with 0.5 μg/mL Höechst 33342 in PBS for 20 min in the dark, mounted in Fluoroshield, and observed under a fluorescence microscope equipped with an excitation filter with maximum transmission at 360/400 nm. In both stainings, the cells were observed using the microscope Eclipse CI (Nikon, Japan) and the images were processed with Nikon NIS Elements Image Software (Nikon, Japan).

HFF-1 cells [2] = assay: MTT cell viability assay; assay type: cell-based; settings: Homo sapiens
Protocol: (§1) Experiments were performed using the following cell lines: Ishikawa, Hec50co, COV434, and HFF-1. The Ishikawa cell line (RRID: CVCL_2529) was established from an endometrial adenocarcinoma. The Hec50co cell line (RRID: CVCL_4Y59) consists of poorly differentiated endometrial tumor cells isolated from a patient with advanced disease. Both the Ishikawa and Hec50co cell lines were kindly provided by Dr. Kim K. Leslie (The University of New Mexico Health Sciences Center, Albuquerque, NM, USA). COV434 (RRID: CVCL_2010) were initially isolated from a patient diagnosed with a granulosa cell tumor but were recently classified as cells from a small-cell carcinoma of the ovary, hypercalcemic type.The COV434 cells were purchased from the European Collection of Authenticated Cell Cultures (ECACC) (#07071909). HFF-1 (RRID: CVCL_3285) is an immortalized human foreskin fibroblasts cell line, obtained from the American Type Culture Collection (ATCC), which was used as control, as they are non-tumorous cells. The Ishikawa and Hec50co cells were maintained in Dulbecco’s Modified Eagle Medium/F12 (DMEM/F12) supplemented with 5% Foetal Bovine Serum (FBS). COV434 cells were maintained in DMEM/F12 supplemented with 10% FBS. HFF-1 were maintained in Roswell Park Memorial Institute 1640 (RPMI 1640) supplemented with 10% FBS. All mediums were supplemented with 1% AB-AM and all cells were kept at 37 °C with 5% CO2. The treatment with the compounds was done in the respective cell medium supplemented with 2% FBS and 24 h after platting the cells in the culture medium with 5% FBS to allow their adherence.
(§2) The Ishikawa, Hec50co, COV434, and HFF-1 cell lines were plated at a density of 5 × 10^4 cells/well in transparent 96-well plates. After 24 h, the cells were treated with Mito6_TPP, Mito6_picol., or Mito6_isoq. (0.01–100 μM) and incubated at 37 °C with 5% CO2 for 24, 48, or 72 h. […] The conditions of the methylthiazolyldiphenyl-tetrazolium bromide (MTT) assay were adapted from the work of Banerjee et al.. Briefly, MTT was added to a final concentration of 0.5 mg/mL, and the cells were incubated for 3 h at 37 °C with 5% CO2. After the 3 h, purple MTT formazan crystals were dissolved by agitation for 15 min in a solution of DMSO/isopropanol (ratio 3:1) and quantified spectrophotometrically at 540 nm. The neutral red (NR) assay conditions were based on the work developed by Repetto et al.. Briefly, after the incubation time, cells were incubated with NR at 40 μg/mL in an FBS-free cell medium for 3 h. The cells were then incubated with a solution of 50% ethanol (96% v/v), 49% deionized water, and 1% glacial acetic acid, with shaking for 15 min. The NR extracted from the cells was measured at 540 nm. The LDH cytotoxicity assay was not performed on the HFF-1 cells due to the lack of evidence of cell death at the concentrations tested. After the incubation time, this assay was performed using a Thermo Scientific Pierce LDH Cytotoxicity Assay Kit according to the manufacturer’s instructions. For all assays, the absorbance was read using a BioTek Synergy HTX Multi-Mode Microplate Reader equipped with BioTek Gen5 Data Collection and Analysis Software (BioTek Instruments, Winooski, VT, USA).
(§3) Data were evaluated using the one- or two-way analysis of variance (ANOVA) test followed by Bonferroni’s test for multiple comparisons. The data presented was expressed as mean ± SEM (Standard Error of the Mean) of a minimum of three and a maximum of seven independent experiments performed in triplicate. Values of p < 0.05 were considered statistically significant. Half of the maximal effective concentration (EC50) values were estimated by interpolation of dose-response curves and reported as a mean with a 95% confidence interval (CI 95%). All statistical analysis was performed using GraphPad Prism Software 8.0 (GraphPad Software, Inc., San Diego, CA, USA). […]

Hec50co cells [3] = assay: MTT cell viability assay; assay type: cell-based; settings: Homo sapiens
Protocol: as §1, §2, §3

Ishikawa cells [4] = assay: MTT cell viability assay; assay type: cell-based; settings: Homo sapiens
Protocol: as §1, §2, §3

COV434 cells [5] = assay: MTT cell viability assay; assay type: cell-based; settings: Homo sapiens
Protocol: as §1, §2, §3

HFF-1 cells [6] = assay: Neutral red (NR) cell viability assay; assay type: cell-based; settings: Homo sapiens
Protocol: as §1, §2, §3

Hec50co cells [7] = assay: Neutral red (NR) cell viability assay; assay type: cell-based; settings: Homo sapiens
Protocol: as §1, §2, §3

Ishikawa cells [8] = assay: Neutral red (NR) cell viability assay; assay type: cell-based; settings: Homo sapiens
Protocol: as §1, §2, §3

COV434 cells [9] = assay: Neutral red (NR) cell viability assay; assay type: cell-based; settings: Homo sapiens
Protocol: as §1, §2, §3

[10] = 24 h, read-out: EC50 (decrease of viability), MTT assay
[11] = 48 h, read-out: EC50 (decrease of viability), MTT Assay
[12] = 72 h, read-out: EC50 (decrease of viability), MTT assay
[13] = COV434, 24 hours of incubation, read-out: EC50 (decrease of viability), MTT assay
[14] = COV434, 48 h of incubation, read-out: EC50 (decrease of viability), MTT Assay
[15] = COV434, 72 hours of incubation, read-out: EC50 (decrease of viability), MTT assay
[16] = 24 h, read-out: EC50 (decrease of viability), NR assay
[17] = 48 h, read-out: EC50 (decrease of viability), NR Assay
[18] = 72 h, read-out: EC50 (decrease of viability), NR assay
[19] = COV434, 24 hours of incubation, read-out: EC50 (decrease of viability), NR assay
[20] = COV434, 48 h of incubation, read-out: EC50 (decrease of viability), NR Assay
[21] = COV434, 72 hours of incubation, read-out: EC50 (decrease of viability), NR assay
[22] = HFF-1, 48 h of incubation, read-out: EC50 (decrease of viability), MTT Assay
[23] = Hec50co, 24 hours of incubation, read-out: EC50 (decrease of viability), MTT assay
[24] = Hec50co, 48 h of incubation, read-out: EC50 (decrease of viability), MTT Assay
[25] = Hec50co, 72 hours of incubation, read-out: EC50 (decrease of viability), MTT assay
[26] = 24 hours of incubation, read-out: EC50 (decrease of viability), MTT assay
[27] = 48 h of incubation, read-out: EC50 (decrease of viability), MTT Assay
[28] = 72 hours of incubation, read-out: EC50 (decrease of viability), MTT assay
[29] = HFF-1, 48 h of incubation, read-out: EC50 (decrease of viability), NR Assay
[30] = Hec50co, 24 hours of incubation, read-out: EC50 (decrease of viability), NR assay
[31] = Hec50co, 48 h of incubation, read-out: EC50 (decrease of viability), NR Assay
[32] = Hec50co, 72 hours of incubation, read-out: EC50 (decrease of viability), NR assay
[33] = 24 hours of incubation, read-out: EC50 (decrease of viability), NR assay
[34] = 48 h of incubation, read-out: EC50 (decrease of viability), NR Assay
[35] = 72 hours of incubation, read-out: EC50 (decrease of viability), NR assay

Compound	Cell morphology changes (Giemsa staining) (Hec50co cells [1])	EC50 (COV434 cells [5]; [13]) [µM]	EC50 (COV434 cells [5]; [14]) [µM]	EC50 (COV434 cells [5]; [15]) [µM]	EC50 (COV434 cells [9]; [19]) [µM]	EC50 (COV434 cells [9]; [20]) [µM]	EC50 (COV434 cells [9]; [21]) [µM]	EC50 (HFF-1 cells [2]; [22]) [µM]	EC50 (Hec50co cells [3]; [23]) [µM]	EC50 (Hec50co cells [3]; [24]) [µM]	EC50 (Hec50co cells [3]; [25]) [µM]	EC50 (Ishikawa cells [4]; [26]) [µM]	EC50 (Ishikawa cells [4]; [27]) [µM]	EC50 (Ishikawa cells [4]; [28]) [µM]	EC50 (HFF-1 cells [6]; [29]) [µM]	EC50 (Hec50co cells [7]; [30]) [µM]	EC50 (Hec50co cells [7]; [31]) [µM]	EC50 (Hec50co cells [7]; [32]) [µM]	EC50 (Ishikawa cells [8]; [33]) [µM]	EC50 (Ishikawa cells [8]; [34]) [µM]	also measured
O=C(/C=C/c1ccc(O)c(O)c1)NCCCCCCCCCC[P+](c1ccccc1)(c1ccccc1)c1ccccc1 [Mito6_TPP]	altered cell shapes and indications of chromatin condensation	4.64	2.37	0.577	13.6	9.11	4.01														EC50 (HFF-1 cells [2]; HFF-1, 24 h, read-out: EC50 (decrease of viability), MTT assay): > 100 µM; EC50 (HFF-1 cells [2]; HFF-1, 48 h, read-out: EC50 (decrease of viability), MTT Assay): 44.5 µM; EC50 (HFF-1 cells [2]; HFF-1, 72 h, read-out: EC50 (decrease of viability), MTT assay): 37 µM; EC50 (Hec50co cells [3]; [10]): 7.75 µM; EC50 (Hec50co cells [3]; [11]): 1.87 µM; EC50 (Hec50co cells [3]; [12]): 0.847 µM; EC50 (Ishikawa cells [4]; [10]): 9.14 µM; EC50 (Ishikawa cells [4]; [11]): 2.45 µM; EC50 (Ishikawa cells [4]; [12]): 0.925 µM; EC50 (HFF-1 cells [6]; HFF-1, 24 h, read-out: EC50 (decrease of viability), NR assay): 73.6 µM; EC50 (HFF-1 cells [6]; HFF-1, 48 h, read-out: EC50 (decrease of viability), NR Assay): 57 µM; EC50 (HFF-1 cells [6]; HFF-1, 72 h, read-out: EC50 (decrease of viability), NR assay): 45.1 µM; EC50 (Hec50co cells [7]; [16]): 53.6 µM; EC50 (Hec50co cells [7]; [17]): 35.4 µM; EC50 (Hec50co cells [7]; [18]): 23.9 µM; EC50 (Ishikawa cells [8]; [16]): 33.2 µM; EC50 (Ishikawa cells [8]; [17]): 15.7 µM; EC50 (Ishikawa cells [8]; [18]): 11.2 µM
O=C(/C=C/c1ccc(O)c(O)c1)NCCCCCCCCCC[n+]1ccc2ccccc2c1 [Mito6_isoq.]		29.5	7.16	3.16	51.6	40	30.8	> 100	19	9.55	6.59	29.9	15.4	7.16	97	> 100	150	87.6	55.3	36.9	EC50 (HFF-1 cells [6]; HFF-1, 24 hours of incubation, read-out: EC50 (decrease of viability), NR assay): > 100 µM; EC50 (HFF-1 cells [6]; HFF-1, 72 hours of incubation, read-out: EC50 (decrease of viability), NR assay): 68.6 µM; EC50 (Ishikawa cells [8]; [35]): 28.9 µM
Cc1cc[n+](CCCCCCCCCCNC(=O)/C=C/c2ccc(O)c(O)c2)cc1 [Mito6_picol.]	did not induce any morphological changes	53.2	15.9	6.6	87.8	62.5	34.2	> 100	27.3	13.8	17.2	42.9	23.6	10.8	> 100	> 100	197	92	> 100	84.4	EC50 (Ishikawa cells [8]; [35]): 59.4 µM
